Data taken from patent US7928078B2, “Conjugates of immune cell specific macrolide compounds with anti-inflammatory compounds for improved cellular targeting of anti-inflammatory therapy” (GlaxoSmithKline Istrazivacki Centar Zagreb D.O.O., priority 2001, dated 2011).

Legend:
[1] = Influence of compounds on the thymus weight; conditions: rats, s.c. implanted impregnated pellets, 7 days
From the text: Influence of Compounds on the Thymus Weight
Male Sprague Dawley rats with a body weight of 200 g were randomly divided into groups of six animals. To anaesthetized animals sterilized weighed pellets of filter paper were implanted s.c. dorsally. The pellets in the control group were impregnated with acetone, whereas in the test groups they were impregnated either with the standard (prednisolone, Sigma) or with the compound 10. After 7 days the animals were put to sleep and their thymuses were isolated and weighed. The systemic effects were estimated by comparing the thymus weight in the test and control groups.

[2] = test system: interleukin-2 production induced by the stimulation via CD3 receptor; test: Assay of inhibition of interleukin-2 production; assay type: cell-based, mouse
Method: Assay of Inhibition of Interleukin-2 Production
Onto a 96-well plate (Nunc) 15 ng of 2C11 antibodies (Pharmingen) per well were added and left to adsorb in PBS buffer (pH=7.4) overnight at 4° C. PBS was removed, the plate was washed with RPMI medium and then 50,000 cells per well were added and incubated in the medium with and without a dilution of the test compounds. The concentration of IL-2 in the supernatant was measured by ELISA specific for mouse IL-2 (R&D Systems).

[3] = test system: mouse T-cell hybridoma 13; test: Assay of inhibition of mouse T-cell hybridoma 13 proliferation as a result of apoptose induction; assay type: cell-based; conditions: [3H] thymidine incorporation
Method: Assay of Inhibition of Mouse T-Cell Hybridoma 13 Proliferation as a Result of Apoptose Induction
In a 96-well plate triplicates of test steroid dilution in RPMI medium (Immunoloski zavod) with […] were performed. To the solutions of compounds 20 000 cells per well were added and incubated overnight at 37° C. in an atmosphere with 5% CO2, then 1 μCi of [^3H] thymidine (Pharmacia) was added and it was incubated for additional 3 hours. The cells were harvested by sucking over GF/C filter (Packard). Onto each well 30 μl of Microscynt O scintillation liquid (Packard) were added and the incorporated radioactivity was measured on a β-scintillation counter (Packard). The specifity of apoptose induction by glucocorticoids was proven by antagonising the proliferation inhibition with mifepristone (Sigma).

[4] = test system: OVA-induced lung eosinophilia; test: Model of lung eosinophilia in mice; assay type: in vivo, Balb/C mice; conditions: daily i.n. or i.p., different doses, 48 hours after OVA, t-test, p<0.05
Method: Model of Lung Eosinophilia in Mice
Male Balb/C mice with a body weight of 20-25 g were randomly divided into groups. They were sensibilized by an i.p. injection of ovalbumine (OVA, Sigma) on zero day and on the fourteenth day. On the twentieth day the mice were subjected to a provocative test by i.n. application of OVA (positive control or test groups) or PBS (negative control). 48 hours after i.n. application of OVA, the animals were anesthetized and the lungs were rinsed with 1 ml of PBS. The cells were separated on Cytospin 3 cytocentrifuge (Shandon). The cells were stained in Diff-Quick (Dade) and the percentage of eozinophiles was determined by differential counting of at least 100 cells.
Fluticasone and beclomethasone were used as standard substances under positive and negative control.
The compounds were administered daily i.n. or i.p. in different doses 2 days before provocative test and up to the completion of the test.

[5] = biological target: T1, alpha isoform of human glucocorticoid receptor (Homo sapiens, UniProt P04150); test: Assay of binding to the human glucocorticoid receptor ([3H] dexamethasone competition in transfected COS-1 cells); conditions: 24 nM [3H] dexamethasone
T1 construct: expressed in transfected cells; host or cells: COS-1 cells, transient transfection with pcDNA3.1 hygro(+) carrying the GR alpha cDNA
T1 sequence (P04150 1-777): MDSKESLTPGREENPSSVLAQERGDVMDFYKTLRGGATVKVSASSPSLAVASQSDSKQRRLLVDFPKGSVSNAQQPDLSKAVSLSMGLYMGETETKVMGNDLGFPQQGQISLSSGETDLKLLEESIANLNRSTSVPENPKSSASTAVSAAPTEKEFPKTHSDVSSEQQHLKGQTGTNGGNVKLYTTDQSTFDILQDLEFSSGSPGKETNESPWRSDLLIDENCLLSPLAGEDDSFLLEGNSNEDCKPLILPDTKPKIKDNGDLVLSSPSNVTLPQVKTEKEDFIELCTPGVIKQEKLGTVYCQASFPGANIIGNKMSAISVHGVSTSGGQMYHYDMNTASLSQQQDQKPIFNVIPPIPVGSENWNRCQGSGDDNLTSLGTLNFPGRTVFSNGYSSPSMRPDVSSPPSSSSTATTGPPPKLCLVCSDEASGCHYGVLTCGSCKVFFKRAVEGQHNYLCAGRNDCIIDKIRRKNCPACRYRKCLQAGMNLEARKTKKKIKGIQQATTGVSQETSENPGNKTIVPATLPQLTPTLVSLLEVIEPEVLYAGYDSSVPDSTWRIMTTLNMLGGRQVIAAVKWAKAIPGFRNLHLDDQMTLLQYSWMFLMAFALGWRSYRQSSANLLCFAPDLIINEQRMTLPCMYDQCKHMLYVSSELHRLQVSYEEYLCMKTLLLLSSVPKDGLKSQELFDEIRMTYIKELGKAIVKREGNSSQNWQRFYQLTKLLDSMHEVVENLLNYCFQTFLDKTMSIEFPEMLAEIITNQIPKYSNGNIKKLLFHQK
From the text: Assay of Binding to the Human Glucocorticoid Receptor
The gene for alpha isoform of human glucocorticoid receptor was cloned by reverse polymerase chain reaction. The total RNA was isolated from human peripheral blood lymphocites according to the instructions of the manufacturer (Qiagen), transcripted into cDNA with AMV reverse transcriptase (Roche) and the gene was multiplied by specific primers
The obtained reaction product was cloned into XhoI/BamHI site of Bluescript KS plasmid (Stratagene), subjected to sequencing by dideoxy fluorescent method with M13 and M13 rev primers (Mycrosynth) and then it was cloned into XhoI/BamHI site of pcDNA3.1 hygro(+)plasmid (Invitrogen). 1×10^5 COS-1 cells were seeded onto a 12-well plate (Falcon) in DMEM medium (Life Technologies) with 10% FBS (Biowhitaker) and cultivated up to a 70% confluence at 37° C. in an atmosphere with 5% CO2. The medium was removed and 1 μg of DNA, 7 μl of PLUS reagent and 2 μl of Lipofectamine (Life Technologies) in 500 μl DMEM were added per well. The cells were incubated at 37° C. in an atmosphere with 5% CO2 and after 5 hours the same volume of 20% FBS/DMEM was added. After 24 hours the medium was completely changed. 48 hours after the transfection, the test compounds in different concentrations and 24 nM [^3H] dexamethasone (Pharmacia) in DMEM medium were added. The cells were incubated for 90 minutes at 37° C. in an atmosphere with 5% CO2, washed three times with PBS buffer (Sigma), cooled to 4° C. (pH=7.4) and then lyzed in Tris buffer (pH=8.0) (Sigma) with 0.2% SDS (Sigma). After the addition of UltimaGold XR (Packard) scintillation liquid, the residual radioactivity was read in a Tricarb (Packard) β-scintillation counter.

[6] = test system: CHO and COS-1 cells; test: Assay of steroid introduction into cells; assay type: cell-based; conditions: 1 μM radioactive compound, 90 minutes, 37° C.
Method: Assay of Steroid Introduction into Cells
CHO and COS-1 cells were cultivated up to confluence in 75 cm^2 flasks in Hamm F 12 medium (Life Technologies) with 10% FBS (CHO) or in DMEM medium with 10% FBS (COS-1). 1 μM of radioactive compound 10 with total 2 μCi activity was added onto the cells and it was incubated for 90 minutes at 37° C. in an atmosphere with 5% CO2. The cell supernatant was collected, the cells were lysed and then the radioactivity in the cell lysate as well as in the cell supernatant was read.

| Compound | effect on thymus weights with regard to the control [1] | inhibition of interleukin-2 production [2] | melting point [°C] | inhibition of cell hybridoma 13 proliferation [3] | number of eosinophiles in the lung rinse with regard to the positive control [4] | competition with radioactive dexamethasone in the binding site on the glucocorticoid receptor [5] | accumulation in the cells versus cell supernatant [6] |
| --- | --- | --- | --- | --- | --- | --- | --- |
| C[C@]12C=CC(=O)C=C1CC[C@@H]1[C@@H]2[C@@H](O)C[C@@]2(C)[C@H]1CC[C@]2(O)C(=O)CO [standard, prednisolone] | statistically significantly reduced the thymus weights |  |  |  |  |  |  |
| CC[C@H]1OC(=O)[C@H](C)[C@@H](O[C@@H]2C[C@](C)(OC)[C@H](O)C(C)O2)[C@H](C)[C@@H](O[C@@H]2O[C@H](C)C[C@@H](N(C)C)[C@H]2O)[C@](C)(O)C[C@@H](C)CN(CCCNC(=O)[C@@]2(O)[C@H](C)CC3C4C[C@H](F)C5=CC(=O)C=C[C@]5(C)[C@@]4(F)[C@@H](O)C[C@@]32C)[C@H](C)[C@@H](O)[C@]1(C)O (stereo partly drawn) [Compound 9] |  | demonstrate an inhibition | 169 | demonstrated an inhibition | statistically significantly (t-test, p<0.05) reduced | able to compete with radioactive dexamethasone |  |
| CC[C@H]1OC(=O)[C@H](C)[C@@H](O[C@@H]2C[C@](C)(OC)[C@H](O)C(C)O2)[C@H](C)[C@@H](O[C@@H]2O[C@H](C)C[C@@H](N(C)C)[C@H]2O)[C@](C)(O)C[C@@H](C)CN(CCCNC(=O)[C@@]2(O)CCC3C4CCC5=CC(=O)CC[C@]5(C)C4[C@@H](O)C[C@@]32C)[C@H](C)[C@@H](O)[C@]1(C)O (stereo partly drawn) [Compound 8] |  |  | 144 | demonstrated an inhibition | statistically significantly (t-test, p<0.05) reduced |  |  |
| CC[C@H]1OC(=O)[C@H](C)[C@@H](O[C@@H]2C[C@](C)(OC)[C@H](O)C(C)O2)[C@H](C)[C@@H](O[C@@H]2O[C@H](C)C[C@@H](N(C)C)[C@H]2O)[C@](C)(O)C[C@@H](C)CN(CCCNC(=O)[C@@]2(O)[C@H](C)CC3C4CCC5=CC(=O)C=C[C@]5(C)[C@@]4(F)[C@@H](O)C[C@@]32C)[C@H](C)[C@@H](O)[C@]1(C)O (stereo partly drawn) [Compound 10] |  | demonstrate an inhibition | 170 to 175 | demonstrated an inhibition | statistically significantly (t-test, p<0.05) reduced | able to compete with radioactive dexamethasone | able to accumulate in the cells in a greater concentration than in the supernatant |
